Data: the NIST ThermoML archive (doi:10.1016/j.tca.2013.07.005)
Numbers after ± are expanded uncertainties.

Columns and labels:
[1] = Crystal; for vapor or sublimation pressure: Transpiration method; for Normal melting temperature: DTA
[2] = Molar enthalpy of transition or fusion; details: Crystal; DSC

SMILES	vapor or sublimation pressure ([1]; 353.15 K) [kPa]	vapor or sublimation pressure ([1]; 360.15 K) [kPa]	vapor or sublimation pressure ([1]; 371.15 K) [kPa]	vapor or sublimation pressure ([1]; 373.15 K) [kPa]	vapor or sublimation pressure ([1]; 375.15 K) [kPa]	vapor or sublimation pressure ([1]; 377.15 K) [kPa]	vapor or sublimation pressure ([1]; 381.15 K) [kPa]	vapor or sublimation pressure ([1]; 383.15 K) [kPa]	vapor or sublimation pressure ([1]; 386.15 K) [kPa]	Normal melting temperature [1] [°C]	Molar enthalpy of transition or fusion [2] [kcal/mol]	also measured
O=C(NC1=NCCC2(CCCCC2)S1)c1ccccc1 [N-(1-thia-3-azaspiro[5.5]undec-2-en-2-yl)benzamide]	2.2e-09	3.8e-09	8.9e-09	1.06e-08	1.28e-08	1.4e-08	2e-08	2.26e-08	2.87e-08	130.2 ± 2.1	6.67 ± 0.287	vapor or sublimation pressure ([1]; 354.15 K): 2.3e-09 kPa; vapor or sublimation pressure ([1]; 357.15 K): 3.1e-09 kPa; vapor or sublimation pressure ([1]; 363.15 K): 4.8e-09 kPa; vapor or sublimation pressure ([1]; 366.15 K): 5.8e-09 kPa; vapor or sublimation pressure ([1]; 368.15 K): 6.8e-09 kPa; vapor or sublimation pressure ([1]; 378.15 K): 1.51e-08 kPa; vapor or sublimation pressure ([1]; 380.15 K): 1.85e-08 kPa
CC(=O)c1ccc(NC2=NCCC3(CCCCC3)S2)cc1				4.1e-09	5.3e-09	6.8e-09	1.13e-08	1.46e-08	2.15e-08	163.5 ± 2.1	7.77 ± 0.287	vapor or sublimation pressure ([1]; 379.15 K): 8.8e-09 kPa; vapor or sublimation pressure ([1]; 385.15 K): 1.87e-08 kPa; vapor or sublimation pressure ([1]; 387.15 K): 2.52e-08 kPa; vapor or sublimation pressure ([1]; 388.15 K): 2.87e-08 kPa; vapor or sublimation pressure ([1]; 390.15 K): 3.44e-08 kPa; vapor or sublimation pressure ([1]; 391.15 K): 3.72e-08 kPa; vapor or sublimation pressure ([1]; 392.15 K): 4.46e-08 kPa; vapor or sublimation pressure ([1]; 393.15 K): 5.03e-08 kPa; vapor or sublimation pressure ([1]; 394.15 K): 5.5e-08 kPa; vapor or sublimation pressure ([1]; 396.15 K): 7.28e-08 kPa; vapor or sublimation pressure ([1]; 397.15 K): 7.97e-08 kPa
COc1ccc(NC2=NCCC3(CCCCC3)S2)cc1 [N-(4-methoxyphenyl)-1-thia-3-azaspiro[5.5]undec-2-en-2-amine]	3.4e-09	9.5e-09	3.63e-08	4.28e-08	5.23e-08	6.63e-08	9.73e-08			115.4 ± 2.1	6.52 ± 0.263	vapor or sublimation pressure ([1]; 355.15 K): 4.7e-09 kPa; vapor or sublimation pressure ([1]; 358.15 K): 6.5e-09 kPa; vapor or sublimation pressure ([1]; 362.15 K): 1.15e-08 kPa; vapor or sublimation pressure ([1]; 365.15 K): 1.64e-08 kPa; vapor or sublimation pressure ([1]; 367.15 K): 2.17e-08 kPa; vapor or sublimation pressure ([1]; 369.15 K): 2.73e-08 kPa
